Reference: the NIST ThermoML archive (doi:10.1021/je049612f)

Conditions: Gas, Vibrating wire viscometry

FS(F)(F)(F)(F)F [sulfur hexafluoride]
Conditions | viscosity [mPa·s]
321 K, 1893.8 kPa | 0.01729
321 K, 1930.7 kPa | 0.01734
321 K, 2004.9 kPa | 0.01743
321 K, 2041.9 kPa | 0.01747
321 K, 2120.4 kPa | 0.01758
321 K, 2221.3 kPa | 0.01772
321 K, 2270.3 kPa | 0.0178
321 K, 2332.7 kPa | 0.0179
321 K, 2373.2 kPa | 0.01797
321 K, 2451.3 kPa | 0.01812
321 K, 2534.7 kPa | 0.01826
321 K, 2581.9 kPa | 0.01837
321 K, 2629.5 kPa | 0.01846
321 K, 2688.1 kPa | 0.0186
321 K, 2803.9 kPa | 0.01888
321 K, 2873.5 kPa | 0.01908
321 K, 2959.1 kPa | 0.01932
321 K, 3050 kPa | 0.01963
321 K, 3136.6 kPa | 0.01995
321 K, 3229.6 kPa | 0.02035
321 K, 3282 kPa | 0.0206
321 K, 3384.4 kPa | 0.02117
321 K, 3445.9 kPa | 0.02156
321 K, 3498.8 kPa | 0.02195
321 K, 3558.3 kPa | 0.02244
321 K, 3606.1 kPa | 0.02294
321 K, 3651.4 kPa | 0.02346
321 K, 3695.6 kPa | 0.02407
321 K, 3729.2 kPa | 0.02462
321 K, 3765.4 kPa | 0.0253
321 K, 3793.6 kPa | 0.026
321 K, 3819.6 kPa | 0.02674
321 K, 3858.5 kPa | 0.02827
321 K, 3887.8 kPa | 0.0299
321 K, 3899.4 kPa | 0.03104
321 K, 3910.1 kPa | 0.03218
321 K, 3918.4 kPa | 0.03355
321 K, 3926.6 kPa | 0.03481
321 K, 3933.3 kPa | 0.03615
321 K, 3938.4 kPa | 0.03743
321 K, 3945.7 kPa | 0.03995
321 K, 3950.6 kPa | 0.04131
321 K, 3955.4 kPa | 0.04272
321 K, 3961 kPa | 0.04435
321 K, 3968.8 kPa | 0.04638
321 K, 3977 kPa | 0.04813
321 K, 3988.3 kPa | 0.05018
321 K, 4001.1 kPa | 0.05214
321 K, 4020.8 kPa | 0.05448
321 K, 4046.8 kPa | 0.05683
321 K, 4077.1 kPa | 0.05902
321 K, 4112.9 kPa | 0.06125
321 K, 4160 kPa | 0.0635
321 K, 4223.8 kPa | 0.06599
321 K, 4349.4 kPa | 0.07
321 K, 4465.5 kPa | 0.07305
321 K, 4601.3 kPa | 0.07606
321 K, 4740.5 kPa | 0.07859
321 K, 4879.1 kPa | 0.08093
321 K, 5134 kPa | 0.08474
321 K, 5554.1 kPa | 0.09001
321 K, 5938 kPa | 0.09416
321 K, 6388.7 kPa | 0.09845
321 K, 7256.2 kPa | 0.1057
321 K, 7905.1 kPa | 0.1105
321 K, 8647.5 kPa | 0.1154
321 K, 9548.1 kPa | 0.1212
321 K, 10352 kPa | 0.1258
321 K, 11075 kPa | 0.1297
333.15 K, 91.55 kPa | 0.01681
333.15 K, 113.58 kPa | 0.01682
333.15 K, 142.52 kPa | 0.01682
333.15 K, 172.42 kPa | 0.01683
333.15 K, 198.48 kPa | 0.01684
333.15 K, 218.78 kPa | 0.01685
333.15 K, 243.22 kPa | 0.01685
333.15 K, 275.2 kPa | 0.01686
333.15 K, 294.03 kPa | 0.01686
333.15 K, 319.41 kPa | 0.01687
333.15 K, 350.89 kPa | 0.01688
333.15 K, 378.94 kPa | 0.01689
333.15 K, 416.93 kPa | 0.0169
333.15 K, 443.4 kPa | 0.01691
333.15 K, 479.64 kPa | 0.01692
333.15 K, 506.6 kPa | 0.01693
333.15 K, 547.64 kPa | 0.01694
333.15 K, 590.65 kPa | 0.01695
333.15 K, 636.15 kPa | 0.01697
333.15 K, 671.18 kPa | 0.01698
333.15 K, 717.74 kPa | 0.017
333.15 K, 772.31 kPa | 0.01703
333.15 K, 837.79 kPa | 0.01705
333.15 K, 887.92 kPa | 0.01708
333.15 K, 946.43 kPa | 0.0171
333.15 K, 1025.7 kPa | 0.01715
333.15 K, 1092.5 kPa | 0.01718
333.15 K, 1167.4 kPa | 0.01723
333.15 K, 1233.2 kPa | 0.01727
333.15 K, 1307.8 kPa | 0.01732
333.15 K, 1366.9 kPa | 0.01737
333.15 K, 1419.7 kPa | 0.0174
333.15 K, 1502.8 kPa | 0.01746
333.15 K, 1566.4 kPa | 0.01751
333.15 K, 1629.7 kPa | 0.01757
333.15 K, 1705.8 kPa | 0.01763
333.15 K, 1772.9 kPa | 0.01769
333.15 K, 1853.5 kPa | 0.01778
333.15 K, 1917.4 kPa | 0.01783
333.15 K, 1967 kPa | 0.0179
333.15 K, 2025.7 kPa | 0.01795
333.15 K, 2294.7 kPa | 0.01828
333.15 K, 2427.7 kPa | 0.01848
333.15 K, 2519.2 kPa | 0.01862
333.15 K, 2631.9 kPa | 0.0188
333.15 K, 2766.3 kPa | 0.01904
333.15 K, 2872 kPa | 0.01925
333.15 K, 3008.3 kPa | 0.01955
333.15 K, 3089.4 kPa | 0.01973
333.15 K, 3195.2 kPa | 0.02001
333.15 K, 3306.1 kPa | 0.02032
333.15 K, 3398.7 kPa | 0.0206
333.15 K, 3504 kPa | 0.02097
333.15 K, 3605.1 kPa | 0.02135
333.15 K, 3722 kPa | 0.02185
333.15 K, 3815.4 kPa | 0.02229
333.15 K, 3932.1 kPa | 0.02291
333.15 K, 4050.8 kPa | 0.0237
333.15 K, 4148.2 kPa | 0.02445
333.15 K, 4239.9 kPa | 0.02524
333.15 K, 4328.2 kPa | 0.02616
333.15 K, 4406.9 kPa | 0.02715
333.15 K, 4479.7 kPa | 0.02819
333.15 K, 4549.6 kPa | 0.02938
333.15 K, 4612.3 kPa | 0.03054
333.15 K, 4671.8 kPa | 0.03186
333.15 K, 4725.8 kPa | 0.03331
333.15 K, 4776.6 kPa | 0.03476
333.15 K, 4828.1 kPa | 0.03629
333.15 K, 4880.1 kPa | 0.03801
333.15 K, 4933.2 kPa | 0.03982
333.15 K, 4991.6 kPa | 0.0419
333.15 K, 5049 kPa | 0.04395
333.15 K, 5109.4 kPa | 0.04603
333.15 K, 5178.8 kPa | 0.04833
333.15 K, 5254.9 kPa | 0.05072
333.15 K, 5343.6 kPa | 0.05331
333.15 K, 5447.5 kPa | 0.0561
333.15 K, 5567.4 kPa | 0.05883
333.15 K, 5709.9 kPa | 0.06196
333.15 K, 5869.5 kPa | 0.06483
333.15 K, 6098.2 kPa | 0.0687
333.15 K, 6338.2 kPa | 0.07217
333.15 K, 6627.7 kPa | 0.07584
333.15 K, 6950.6 kPa | 0.07952
333.15 K, 7378.3 kPa | 0.08395
333.15 K, 7900 kPa | 0.08869
333.15 K, 8519.8 kPa | 0.09355
333.15 K, 9106.8 kPa | 0.09795
333.15 K, 9802 kPa | 0.1027
333.15 K, 10465 kPa | 0.1067
333.15 K, 11412 kPa | 0.1122
333.15 K, 12565 kPa | 0.1183
350 K, 64.67 kPa | 0.01753
350 K, 96.54 kPa | 0.01755
350 K, 117.61 kPa | 0.01755
350 K, 143.77 kPa | 0.01756
350 K, 170.68 kPa | 0.01756
350 K, 204.56 kPa | 0.01758
350 K, 238.01 kPa | 0.01759
